Key:
Format in all cases: in vivo, C57BL/6J mice
HBV [1] = assay: Compound 1 alone in chronic HBV infection mouse model (high-pressure tail vein injection of pAAV-HBV1.2 plasmid)
Protocol: Male C57/B6 mice (6-8 weeks of age, body weight 20 f 2 g) were selected to establish a high-pressure tail vein injection mouse model, in which the tail of mice was wiped with 75% alcohol, and then irradiated with a far-infrared physiotherapy device for 2 to 3 minutes so that the tail vein of mice was turgid and clearly visible. […] Each mouse was injected with 10 μg of pAAV/HBV1.2 plasmid, and the amount of injection liquid (PBS) was 10% of body weight (2 mL/20 g). On the 14th day after the injection, blood was collected to detect HBsAg, and the successfully modeled mice with HBsAg>500 IU/ml were selected for further experiments (Huang, Wu et al. 2006; Chou, Chien et al. 2015). […] There were 6-8 mice in each group, which were administered once a week for 4 consecutive times and observed for 7 weeks.
After the mice serum were diluted 20-fold with PBS, the HBsAg and HBeAg titers of the serum were detected by using Abbott i2000SR microparticle chemiluminescence automatic detector. The serum HBV DNA was extracted by QIAamp DNA Mini Kit (Qiagen), the HBV DNA level in serum was quantified by Realtime-PCR (LightCycler 480, Roche) using DNA Amplification SYBR Green Kit (Roche), and the HBV plasmid PSM2 products with a series of concentration gradients were used as standards. The HBV primers used in this experiment were synthesized by Invitrogen (Shanghai) Trading Co., Ltd., and the primer sequences were as follows: HBV Hope-F (5′ to 3′ […]) and HBV Hope-R (5′ to 3′ […]). The liver tissues of mice were subjected to conventional formalin-fixation and paraffin-embedding, the resultant 4 μm sections were baked at 65° C. for 2 h, dehydrated with conventional ethanol gradients, infiltrated with hydrogen peroxide at room temperature for 30 min, washed with PBS for 5 min/time, 3 times in total, and blocked at room temperature for 1 h. After rabbit-anti-human HBcAg (B0586, DAKO) was added and incubated in a wet box at room temperature for 1 h, a GTvision III immunohistochemical detection kit of anti-rabbit anti-mice general type (GK50075, Shanghai Gene Technology Co., Ltd.) was used for incubation of secondary antibodies and development of color, and pictures at 200× magnification were taken with a normal optical upright microscope. 60 mg of liver tissue homogenate was weighed, added with 900 μl of lysate (50 mmol/L Tris-HCl PH 7.5+1 mmol/L EDTA), placed on ice, and after all samples were processed, 5 μl of […] was added and lysis was performed on ice, and then HBV DNA in liver tissue was extracted with phenol/chloroform, dissolved by adding 15 μl of RNase free water, run on a 1% agarose gel, transferred to membrane; then a full-length HBV probe labeled with digoxin was added, stood overnight at 46° C., subjected to DIG Washing Buffer once for 5 min, added with Anti-Digoxigenin-Ap Fab fragment (11093274910, Roche), and Image Quant LAS 4000mini was used for exposure and detection.

HBV [2] = assay: Compound 1 in combination with TDF in pAAV-HBV1.2 high-pressure tail vein injection mouse model; conditions: Compound 1 10 mg/kg i.v. weekly x4; TDF 53 mg/kg gavage daily 10 days; observed 7 weeks
Protocol: After the mice serum were diluted 20-fold with PBS, the HBsAg and HBeAg titers of the serum were detected by using Abbott i2000SR microparticle chemiluminescence automatic detector. The serum HBV DNA was extracted by QIAamp DNA Mini Kit (Qiagen), the HBV DNA level in serum was quantified by Realtime-PCR (LightCycler 480, Roche) using DNA Amplification SYBR Green Kit (Roche), and the HBV plasmid PSM2 products with a series of concentration gradients were used as standards. The HBV primers used in this experiment were synthesized by Invitrogen (Shanghai) Trading Co., Ltd., and the primer sequences were as follows: HBV Hope-F (5′ to 3′ […]) and HBV Hope-R (5′ to 3′ […]). The liver tissues of mice were subjected to conventional formalin-fixation and paraffin-embedding, the resultant 4 μm sections were baked at 65° C. for 2 h, dehydrated with conventional ethanol gradients, infiltrated with hydrogen peroxide at room temperature for 30 min, washed with PBS for 5 min/time, 3 times in total, and blocked at room temperature for 1 h. […]

[3] = Liver damage after Compound 1 injection in HBV-infected mice (serum ALT/AST, HE staining of liver sections)
From the text: (§1) Chronic HBV infection mouse models were established by high-pressure tail vein injection of pAAV-HBV1.2 plasmid or recombinant virus rAAV8-1.3HBV injection of C57BL/6J mice (6 to 8 weeks of age, weight 20 f 2 g). […] Glutamic-oxalacetic transaminase (AST/GOT) kit (Nanjing Jiancheng, C010-2) and glutamic-pyruvic transaminase (ALT/GPT) kit (Nanjing Jiancheng, C009-2) were used to detect serum ALT and AST levels. Western blot was used to detect the expression of cIAPs molecules in liver tissues, and β-actin was used as a control. Intrahepatic inflammation and hepatocyte necrosis were detected by HE staining of liver tissue sections.

cIAP2 = target: T1, cIAP2 (Mus musculus, UniProt O08863); assay: Western blot of cIAPs molecules in liver tissue after Compound 1 injection; conditions: 10 mg/kg i.v.
T1 construct: Western blot was used to detect the expression of cIAPs molecules in liver tissues; from tissue; host or cells: liver tissue of C57BL/6J mice (HBV model, pAAV-HBV1.2)
From the text: as §1

[4] = system: HBcAg-positive liver cells; assay: Apoptosis of HBV-infected liver cells, HBcAg immunofluorescence and Tunnel double staining, rAAV8-HBV1.3 virus injection mouse model; conditions: 20 mg/kg i.v.; 12 h after injection
From the text: as §1

[5] = system: HBV-specific T cell response; assay: HBV immune response in mice: liver lymphocyte counts and HBV-specific T cell response (flow cytometry, Core93-100 stimulation); conditions: 20 mg/kg once a week x4, 7th week
Protocol: There were 5 to 6 mice in each group, which were administered once a week for four consecutive times, and sacrificed on the 7th week, the mice liver lymphocytes were isolated, and cell counts and flow cytometry were used to detect the expression of CD4 and CD8 molecules in lymphocytes in the liver. The detection of HBV-specific T cell response was performed by using HBV core monopeptide (Core93-100) to stimulate lymphocytes, and the counts of CD4+ and CD8+ T cells that secreted IFNγ, TNFα and IL-2 were detected by flow cytometry cytokine intracellular staining method.

HBV [6] = assay: Compound 1 in combination with IFNα2a in chronic HBV infection mouse model (pAAV-HBV1.2 plus pKCMvint IFNα-2a or control plasmid)
Protocol: One day after modeling, the mice were divided into 4 groups. […] There were 5 mice in each group (except Group D that included 7 mice), the administration was performed for consecutive 3 times, i.e., on the day 1 after modeling, and on the days 7 and 14 after modeling; blood was collected once at orbital margin one day before the administration, and serum HBsAg/HBeAg levels were detected using Roche 601 instrument.

HBV [7] = assay: Comparison of Compound 1 and Birinapant in chronic HBV infection mouse model (pAAV-HBV1.2 plasmid); conditions: for proportion of mice with serum HBsAg levels below the lower limit of detection: after 4 weeks of administration; for serum HBsAg level (individual): after one week of drug treatment
Protocol: Among them, there were 7 mice in each of Group A and Group B, and 6 mice in Group C. Compound 1 and Birinapant were administered once a week for five consecutive weeks. Blood was collected at orbital margin each week before the administration, and the HBsAg/HBeAg levels in supernatant were detected using Roche 601 instrument.

HBV [8] = assay: Compound 1 in combination with anti-PD1 antibody in chronic HBV infection mouse model (pAAV-HBV1.2 plasmid)
From the text: Among them, there were 7 mice in each group.

HBV [9] = assay: Compound 1 and SF18 in mouse model established by rAAV8-HBV1.3 (ayw) virus tail vein injection; conditions: 20 mg/kg i.v.
Protocol: Among them, there were 3 mice in each group. Administration was carried out for consecutive four weeks, blood was collected at orbital margin once per week, and HBsAg/HBeAg levels in supernatant were detected by Roche 601 instrument.

[10] = 20 mg/kg i.v. once a week x4, on the 5th week, faster than 10 mg/kg group
[11] = Compound 1 injection groups (10 and 20 mg/kg i.v., once a week x4), up to the 7th week
[12] = 10 mg/kg i.v., 12, 24, 48 hours after injection
[13] = stimulation with HBV core monopeptide (Core93-100)
[14] = Compound 1 20 mg/kg i.v. once per week, anti-PD1 antibody 200 μg/mice/time i.p. twice per week, five weeks

T1 sequence (O08863 whole entry): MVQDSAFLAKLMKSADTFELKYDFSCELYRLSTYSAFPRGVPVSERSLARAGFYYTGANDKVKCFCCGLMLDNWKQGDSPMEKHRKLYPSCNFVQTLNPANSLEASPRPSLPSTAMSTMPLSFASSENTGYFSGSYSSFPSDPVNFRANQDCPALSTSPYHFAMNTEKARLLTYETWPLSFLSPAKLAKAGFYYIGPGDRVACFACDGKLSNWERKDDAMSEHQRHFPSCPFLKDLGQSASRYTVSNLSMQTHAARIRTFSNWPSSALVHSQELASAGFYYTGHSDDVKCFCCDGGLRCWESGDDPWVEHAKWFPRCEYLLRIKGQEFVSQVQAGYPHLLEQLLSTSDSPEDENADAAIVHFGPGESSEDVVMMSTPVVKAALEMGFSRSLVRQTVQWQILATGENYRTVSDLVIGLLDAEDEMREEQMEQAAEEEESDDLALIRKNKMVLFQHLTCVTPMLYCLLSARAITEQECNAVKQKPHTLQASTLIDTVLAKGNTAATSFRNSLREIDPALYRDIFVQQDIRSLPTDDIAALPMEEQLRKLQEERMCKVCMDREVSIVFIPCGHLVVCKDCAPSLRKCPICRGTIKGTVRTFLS

Compound: CN[C@@H](C)C(=O)N[C@H]1CN(S(=O)(=O)c2cccc(S(=O)(=O)N3CC[C@H]4CC[C@@H](C(=O)NC(c5ccccc5)c5ccccc5)N4C(=O)[C@@H](NC(=O)[C@H](C)NC)C3)c2)CC[C@H]2CCC(C(=O)NC(c3ccccc3)c3ccccc3)N2C1=O (stereo partly drawn) [Compound 1]
- serum HBV DNA (HBV [1]; [10]): completely eliminated
- serum HBsAg (HBV [1]; [10]): completely eliminated
- HBV replication intermediate in liver tissue (Southern blot) (HBV [1]; 7 weeks after administration, compared with saline group): no HBV replication intermediate was detected
- serum HBV DNA (HBV [1]; [11]): below the detection limit
- serum HBsAg (HBV [1]; [11]): below the detection limit
- HBcAg expression in liver (immunohistochemical staining) (HBV [1]; after 7 weeks of administration): not observed
- serum HBsAg clearance rate in comparison with control group (HBV [2]): statistically significant differences
- time at which serum ALT returned to normal levels ([3]; 10 mg/kg i.v.): around 48 hours
- time at which serum ALT rose to the highest value ([3]; 10 mg/kg i.v.): 12 h
- time at which serum AST returned to normal levels ([3]; 10 mg/kg i.v.): around 48 hours
- time at which serum AST rose to the highest value ([3]; 10 mg/kg i.v.): 12 h
- serum ALT change after injection [3, 12]: transient increase
- serum AST change after injection [3, 12]: transient increase
- liver tissue HE staining ([3]; 10 mg/kg i.v., 12 hours after injection, vicinity of portal areas, with lymphocyte infiltration): scattered necrotic lesions
- intrahepatic inflammation / fulminant hepatitis ([3]; after Compound 1 injection, only transient intrahepatic inflammation): did not cause fulminant hepatitis
- time at which inhibition of cIAP2 reached the strongest value (cIAP2): 12 h
- inhibitory effect on cIAP2 in liver tissues (Western blot) (cIAP2; 12, 24, 48 h): strong inhibitory effect
- apoptosis of HBcAg-positive liver cells [4]: could be induced
- count of infiltrated CD4+ T cells in the liver vs control [5]: significantly increased
- count of infiltrated CD8+ T cells in the liver vs control [5]: significantly increased
- total lymphocyte number in the liver vs normal saline control [5]: significantly higher
- counts of CD4+ T cells that secreted IFNγ, TNFα and IL-2 [5, 13]: increased significantly
- counts of CD8+ T cells that secreted IFNγ, TNFα and IL-2 [5, 13]: increased significantly
- serum HBsAg compared with Group C (IFNα-2a) (HBV [6]; 21st day, P 0.008): decreased significantly
- serum HBeAg compared with Group A (saline) (HBV [6]; days 7, 14, 21 (P 0.004 on 7th day, 0.021 on 7th day as printed, 0.001 on 21st day)): statistically significant differences
- serum HBsAg compared with Group A (saline) (HBV [6]; days 7, 14, 21 (P 0.010, 0.008, 0.004), Compound 1 10 mg/kg i.v. days 1, 7, 14, IFNα-2a plasmid-expressed): statistically significant differences
- clearance effect of HBsAg (overall level) vs saline injection group (HBV [7]; 20 mg/kg i.v. once a week, five weeks): statistically significant difference
- proportion of mice with serum HBsAg levels below the lower limit of detection (HBV [7]; 20 mg/kg i.v. once a week): 86%
- serum HBsAg level (individual) (HBV [7]; 20 mg/kg i.v.): decreased significantly
- serum HBsAg level compared with Brinapant group (HBV [7]; 20 mg/kg i.v., after one week, p=0.035): significantly lower than that of the Brinapant group
- clearance effect of HBsAg and HBeAg, overall comparison (HBV [7]; same dosage and mode of administration (20 mg/kg i.v.)): superior to Birinapant
- serum HBeAg (individual) compared with Group A (saline) (HBV [8]; 1st and 2nd weeks (P 0.029, 0.009)): statistically significant differences
- serum HBeAg compared with Group C (anti-PD1 antibody) (HBV [8]; 1st and 2nd weeks, P week 1 0.016 (Group B), 0.007 (Group D), week 2 0.007, 0.002): decreased more significantly
- serum HBeAg level (overall) (HBV [8]; [14]): significantly reduce
- serum HBsAg level (overall) (HBV [8]; [14]): significantly reduce
- anti-HBV effect (conclusion) (HBV [9]; four weeks): anti-HBV effect

Compound: CC[C@H](NC(=O)[C@H](C)NC)C(=O)N1C[C@@H](O)C[C@H]1Cc1c(-c2[nH]c3cc(F)ccc3c2C[C@@H]2C[C@H](O)CN2C(=O)[C@H](CC)NC(=O)[C@H](C)NC)[nH]c2cc(F)ccc12 [Birinapant, reference compound]
- proportion of mice with serum HBsAg levels below the lower limit of detection (HBV [7]; 20 mg/kg i.v. once a week): 57%
- serum HBsAg level (individual) (HBV [7]; 20 mg/kg i.v.): decreased significantly

Compound: CN[C@@H](C)C(=O)N[C@H]1CN(C(=O)Nc2ccc(NC(=O)N3CC[C@H]4CC[C@@H](C(=O)NC(c5ccccc5)c5ccccc5)N4C(=O)[C@@H](NC(=O)[C@H](C)NC)C3)cc2)CC[C@H]2CC[C@@H](C(=O)NC(c3ccccc3)c3ccccc3)N2C1=O [SF18]
- deaths during administration (HBV [9]; 3 mice in the group): one mice died on the 2nd week and 4th week
- anti-HBV effect (conclusion) (HBV [9]; four weeks): stronger than that of Compound 1
- decrease rate of HBeAg in mice serum (HBV [9]; four weeks): significantly faster than those of the Compound 1 group
- decrease rate of HBsAg in mice serum (HBV [9]; four weeks): significantly faster than those of the Compound 1 group

Reference: patent US11298339B2 (priority 2017, dated 2022)
